Test results: patent US12227480B1 (priority 2023, dated 2025)

Key:
[1] = system: Mycobacterium tuberculosis MDR strain; assay: microbe, parasite or virus in culture; assay type: cell-based; settings: read-out: Anti-tubercular activity against Mycobacterium tuberculosis (MIC), MDR
[2] = system: Mycobacterium tuberculosis XDR strain; assay: microbe, parasite or virus in culture; assay type: cell-based; settings: read-out: Anti-tubercular activity against Mycobacterium tuberculosis (MIC), XDR

Cc1cc[n+](CC(=O)c2ccc(F)cc2)cc1.[Br-] [Compound 3d, 1-(2-(4-Fluorophenyl)-2-oxoethyl)-4-methylpyridin-1-ium bromide]
MIC [1]: 8 µg/mL
MIC [2]: 32 µg/mL
